This note sets out measurements from patent publication US11155550B2, “Histone deacetylase inhibitors and methods of use thereof” (Reaction Biology Corp., priority 2018, dated 2021).

One experiment has as its target T1, Human HDAC1 (Homo sapiens, UniProt Q13547).
T1 construct: full-length with a C-terminal His-tag and a C-terminal FLAG-tag; His-tag (C); FLAG-tag (C); made in house; host or cells: baculovirus expression system
The experiment is described as follows: Biochemical HDAC enzymatic assay, HDAC1. To be noted: incubation time 120 min. Here is the method:
(§1) Incubation time for HDAC1/2 is 120 min, and 10 min for other HDACs.
Human HDAC1 (GenBank Accession No. NM_004964), full-length with a C-terminal His-tag and a C-terminal FLAG-tag, MW=56 kDa, was expressed in a baculovirus expression system.
(§2) • I. Compound handling: Testing compounds were dissolved in 100% DMSO to a specific concentration. The serial dilution was conducted by epMotion 5070 in DMSO. • II. HDAC reaction buffer: 50 mM Tris-HCl, pH8.0, 137 mM NaCl, 2.7 mM KCl, and 1 mM MgCl2, Added fresh: 1 mg/ml BSA, 1% DMSO. • III. Substrate: Fluorogenic HDAC General Substrate for HDAC1, 2, 3, 6, 10, 11 ans Sirt1, 2 and 3: Arg-His-Lys-Lys(Ac); HDAC8 only substrate: Arg-His-Lys(Ac)-Lys(Ac); Class2A Substrate (HDAC4, 5, 7 and 9): Acetyl-Lys(trifluoroacetyl)-AMC; Sirt5 substrate: Ac-Lys(succinyl)-AMC. • IV. General Reaction Procedure: (Standard IC50 determination) • a. Delivered 2× enzyme in wells of reaction plate except No Enzyme (No En) control wells. Add buffer in No En wells. • b. Delivered compounds in 100% DMSO into the enzyme mixture by Acoustic technology (Echo550; nanoliter range). Spin down and pre-incubation. • c. Delivered 2× Substrate Mixture (Fluorogenic HDAC Substrate and co-factor (500 μM of Nicotinamide adenine dinucleotide (NAD^+) in all Sirt assay) in all reaction wells to initiate the reaction. Spin and shake. • d. Incubated for 1-2 hr. at 30° C. with seal. • e. Added Developer with Trichostatin A (or TMP269 or NAD^+) to stop the reaction and to generate fluorescent color. • f. Fluorescence was read (excitatory, 360; emission, 460) using the EnVision Multilabel Plate Reader (Perkin Elmer) • g. Endpoint reading was taken for analysis after the development reaches plateau. • V. Data Analysis: The percentages of enzyme activity (relative to DMSO controls) and IC50 values were calculated using the GraphPad Prism 4 program based on a sigmoidal dose-response equation.
(§3) The inhibitory activities of HDAC of compounds of the invention were determined using biochemical HDAC assays. Compounds were tested at the indicated doses in the biochemical assays of HDAC1, HDAC2, HDAC3, HDAC4, HDAC5, HDAC6, HDAC7, HDAC8, HDAC9, HDAC10, or HDAC11 enzyme. The curve fit and IC50 values were calculated using the GraphPad Prism 4 program based on a sigmoidal dose-response equation.
as §2, with “[…]” for “μM”, “equation. […]” for “equation.”

Another experiment deals with T2, Human HDAC2 (Homo sapiens, UniProt Q92769).
T2 construct: full-length with a C-terminal His-tag, MW=56 kDa; His-tag (C); made in house; host or cells: baculovirus expression system
T2 sequence (Q92769 whole entry): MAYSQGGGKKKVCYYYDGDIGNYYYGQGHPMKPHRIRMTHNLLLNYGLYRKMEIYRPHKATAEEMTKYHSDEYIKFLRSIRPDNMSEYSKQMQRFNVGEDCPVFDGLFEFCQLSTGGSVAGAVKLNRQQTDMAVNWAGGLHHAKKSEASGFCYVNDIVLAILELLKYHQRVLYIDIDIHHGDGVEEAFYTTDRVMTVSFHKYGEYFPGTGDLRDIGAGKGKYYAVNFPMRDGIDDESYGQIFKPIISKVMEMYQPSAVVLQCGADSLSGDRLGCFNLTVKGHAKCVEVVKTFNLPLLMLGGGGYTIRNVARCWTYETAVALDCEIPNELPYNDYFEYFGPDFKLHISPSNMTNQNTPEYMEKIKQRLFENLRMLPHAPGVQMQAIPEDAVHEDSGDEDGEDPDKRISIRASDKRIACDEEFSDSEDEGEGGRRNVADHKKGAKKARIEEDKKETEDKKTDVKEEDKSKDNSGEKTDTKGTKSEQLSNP
Briefly: Biochemical HDAC enzymatic assay, HDAC2. To be noted: incubation time 120 min. On the procedure: as §1
Human HDAC2 (GenBank Accession No. NM_001527), full-length with a C-terminal His-tag, MW=56 kDa, was expressed in a baculovirus expression system.
as §2, §3
as §2, with “[…]” for “μM”, “equation. […]” for “equation.”

Experiment [1] has as its target T3, Complex of human HDAC3 and human NCOR2 (Homo sapiens, UniProt O15379).
T3 construct: full-length with a C-terminal His tag, MW=49.7 kDa; His tag (C); made in house; host or cells: baculovirus expression system
Briefly: Biochemical HDAC enzymatic assay, HDAC3. The settings on record: incubation time 10 min. Here is the method:
as §1
Complex of human HDAC3 (GenBank Accession No. NM_003883), full-length with a C-terminal His tag, MW=49.7 kDa, and human NCOR2 (amino acid 395-489) (GenBank Accession No. NM_006312), N-terminal GST tag, MW=37.6 kDa, was co-expressed in a baculovirus expression system.
as §2, §3
• I. Compound handling: Testing compounds were dissolved in 100% DMSO to a specific concentration. The serial dilution was conducted by epMotion 5070 in DMSO. • II. HDAC reaction buffer: 50 mM Tris-HCl, pH8.0, 137 mM NaCl, 2.7 mM KCl, and 1 mM MgCl2, Added fresh: 1 mg/ml BSA, 1% DMSO. • III. Substrate: Fluorogenic HDAC General Substrate for HDAC1, 2, 3, 6, 10, 11 ans Sirt1, 2 and 3: Arg-His-Lys-Lys(Ac); HDAC8 only substrate: Arg-His-Lys(Ac)-Lys(Ac); Class2A Substrate (HDAC4, 5, 7 and 9): Acetyl-Lys(trifluoroacetyl)-AMC; Sirt5 substrate: Ac-Lys(succinyl)-AMC. • IV. General Reaction Procedure: (Standard IC50 determination) • a. Delivered 2× enzyme in wells of reaction plate except No Enzyme (No En) control wells. Add buffer in No En wells. • b. Delivered compounds in 100% DMSO into the enzyme mixture by Acoustic technology (Echo550; nanoliter range). Spin down and pre-incubation. • c. […]

Some results are limits rather than exact numbers.

T1 sequence (Q13547 whole entry): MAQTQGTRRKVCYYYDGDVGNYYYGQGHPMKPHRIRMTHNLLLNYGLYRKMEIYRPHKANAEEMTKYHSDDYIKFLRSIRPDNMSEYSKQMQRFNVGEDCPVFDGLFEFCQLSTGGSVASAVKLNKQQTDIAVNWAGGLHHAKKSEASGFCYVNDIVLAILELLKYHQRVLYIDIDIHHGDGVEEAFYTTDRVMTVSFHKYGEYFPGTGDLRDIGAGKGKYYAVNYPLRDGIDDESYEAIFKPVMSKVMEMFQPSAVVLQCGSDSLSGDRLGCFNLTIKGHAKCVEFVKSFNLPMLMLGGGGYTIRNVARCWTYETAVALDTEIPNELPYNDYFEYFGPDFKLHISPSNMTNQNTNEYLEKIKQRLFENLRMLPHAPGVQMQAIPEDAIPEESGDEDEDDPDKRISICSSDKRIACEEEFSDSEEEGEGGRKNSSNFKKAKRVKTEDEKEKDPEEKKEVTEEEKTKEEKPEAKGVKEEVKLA
T3 sequence (O15379 whole entry): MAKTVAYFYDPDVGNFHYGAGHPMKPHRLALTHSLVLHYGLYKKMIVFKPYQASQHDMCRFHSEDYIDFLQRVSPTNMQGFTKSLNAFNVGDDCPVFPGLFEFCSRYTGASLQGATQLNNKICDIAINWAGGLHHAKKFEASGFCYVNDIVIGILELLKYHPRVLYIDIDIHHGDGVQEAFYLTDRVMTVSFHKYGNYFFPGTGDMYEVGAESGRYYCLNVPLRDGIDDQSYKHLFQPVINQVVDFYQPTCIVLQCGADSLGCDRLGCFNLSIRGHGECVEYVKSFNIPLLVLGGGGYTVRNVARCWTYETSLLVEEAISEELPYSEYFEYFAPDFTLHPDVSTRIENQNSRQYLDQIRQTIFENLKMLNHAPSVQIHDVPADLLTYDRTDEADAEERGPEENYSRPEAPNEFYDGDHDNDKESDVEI
T3 sequence (Q9Y618 395-489 partner limits assumed): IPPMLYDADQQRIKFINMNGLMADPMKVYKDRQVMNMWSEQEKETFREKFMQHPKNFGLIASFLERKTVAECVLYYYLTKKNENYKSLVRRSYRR

A word on the IC50: it is the midpoint of a concentration-inhibition curve. A low value points to higher potency. As to `O=C(NO)c1ccc(CN2C(=O)c3ccccc3C23OCCO3)cc1` [Compound Example 8, N-hydroxy-4-((3-oxospiro[isoindoline-1,2′-[1,3]dioxolan]-2-yl)methyl)benzamide], the IC50 at Human HDAC1 (Table 2) is 8 µM; on Human HDAC2 (Table 2), greater than 10 µM; in experiment [1] (Table 2), greater than 10 µM.

Consider `O=C(NO)c1ccc(CN2C(=O)C3(CCOC3)c3ccccc32)cc1` (stereo not drawn) [Compound Example 9], for which the IC50 was 9.1 µM on Human HDAC1 (Table 2), 17.2 µM against Human HDAC2 (Table 2) and 21 µM in experiment [1] (Table 2).

As to `O=C(NO)c1ccc(CN2C(=O)c3ccccc3C23CCNCC3)cc1` [Compound Example 10, N-hydroxy-4-((3-oxospiro[isoindoline-1,4′-piperidin]-2-yl)methyl)benzamide], the IC50 against Human HDAC1 (Table 2) was 6 µM; at Human HDAC2 (Table 2), greater than 10 µM; in experiment [1] (Table 2) it was 7 µM.

On to `CN(C)C(=O)N1CCC2(CC1)c1ccccc1C(=O)N2Cc1ccc(C(=O)NO)cc1` [Compound Example 11, 2-(4-(hydroxycarbamoyl)benzyl)-N,N-dimethyl-3-oxospiro[isoindoline-1,4′-piperidine]-1′-carboxamide], for which the IC50 (against Human HDAC1 (Table 2); on Human HDAC2 (Table 2); in experiment [1] (Table 2)) was greater than 10 µM in each case.

As to `O=C(NO)c1ccc(CN2C(=O)c3ccccc3C23CCN(C2CC2)CC3)cc1` [Compound Example 12, 4-((1′-cyclopropyl-3-oxospiro[isoindoline-1,4′-piperidin]-2-yl)methyl)-N-hydroxybenzamide], the IC50 on Human HDAC1 (Table 2) is greater than 10 µM; on Human HDAC2 (Table 2), greater than 10 µM; in experiment [1] (Table 2) it was 9.26 µM.

Regarding `Nc1ccc(-c2cccs2)cc1NC(=O)c1ccc(CN2C(=O)CCCC23CNC3)cc1` [Example 1, N-(2-amino-5-(thiophen-2-yl)phenyl)-4-((6-oxo-2,5-diazaspiro[3.5]nonan-5-yl)methyl)benzamide], the IC50 at Human HDAC1 (Table 1) turned out to be 0.006 µM; at Human HDAC2 (Table 1) it was 0.06 µM; in experiment [1] (Table 1), 13 µM.

Consider `Nc1ccc(-c2cccs2)cc1NC(=O)c1ccc(CN2C(=O)CCC23CCNCC3)cc1` [Example 2, N-(2-amino-5-(thiophen-2-yl)phenyl)-4-((2-oxo-1,8-diazaspiro[4.5]decan-1-yl)methyl)benzamide], for which the IC50 was 0.014 µM against Human HDAC1 (Table 1), 0.146 µM against Human HDAC2 (Table 1) and greater than 20 µM in experiment [1] (Table 1).

With `Nc1cc(F)ccc1NC(=O)c1ccc(CN2C(=O)CCCC23CNC3)cc1` [Example 3, N-(2-amino-4-fluorophenyl)-4-((6-oxo-2,5-diazaspiro[3.5]nonan-5-yl)methyl)benzamide], the IC50 at Human HDAC1 (Table 1) worked out at 20 µM; against Human HDAC2 (Table 1), 11.8 µM; in experiment [1] (Table 1), 1.9 µM.

Turning to `CN1CCC2(CC1)CN(c1ccc(C(=O)Nc3cc(-c4cccs4)ccc3N)cn1)C(=O)O2` [Example 4, N-(2-amino-5-(thiophen-2-yl)phenyl)-6-(8-methyl-2-oxo-1-oxa-3,8-diazaspiro[4.5]decan-3-yl)nicotinamide], the IC50 against Human HDAC1 (Table 1) worked out at 0.007 µM; against Human HDAC2 (Table 1), 0.064 µM; in experiment [1] (Table 1), 17.4 µM.

For `Nc1ccc(-c2ccc(F)cc2)cc1NC(=O)c1ccc(N2CC3(CCOCC3)OC2=O)nc1` [Example 5, N-(4-amino-4′-fluoro-[1,1′-biphenyl]-3-yl)-6-(2-oxo-1,8-dioxa-3-azaspiro[4.5]decan-3-yl)nicotinamide], the figures for the IC50 (at Human HDAC1 (Table 1); against Human HDAC2 (Table 1); in experiment [1] (Table 1)) were 0.023 µM, 0.115 µM and greater than 20 µM, respectively.

As to `Nc1ccc(-c2cccs2)cc1NC(=O)c1ccc(N2CC3(CCNCC3)CCC2=O)nc1` [Example 6, N-(2-amino-5-(thiophen-2-yl)phenyl)-6-(3-oxo-2,9-diazaspiro[5.5]undecan-2-yl)nicotinamide], the results for the IC50 (against Human HDAC1 (Table 1); on Human HDAC2 (Table 1); in experiment [1] (Table 1)) were 0.085 µM, 0.61 µM and greater than 20 µM, respectively.
